Laboratory results reported in ChEMBL document CHEMBL1201862, “PubChem BioAssay data set” (2004).
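Cells were grown in 96-well plates and exposed to each compound for 48 hours at five concentrations; endpoints were interpolated linearly between bracketing concentrations, or set to the highest concentration if not reached. Here, GI50 denotes the concentration required for 50% inhibition of growth.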 Active and inactive are the calls of the source. Cut-off read from the data, not from the text of the source: active = GI50 up to about 1.1 µM and inactive = higher.

What was measured:
Assay in all cases: inhibition of tumour cell growth, NCI panel, 48 h
SK-MEL-5 = system: SK-MEL-5
786-0 = system: 786-0
SK-MEL-2 = system: SK-MEL-2
SK-OV-3 = system: SK-OV-3
HCC 2998 = system: HCC 2998
A498 = system: A498
OVCAR-8 = system: OVCAR-8
OVCAR-3 = system: OVCAR-3
LOX IMVI = system: LOX IMVI
HOP-62 = system: HOP-62
ACHN = system: ACHN
A549 = system: A549
CAKI-1 = system: CAKI-1
OVCAR-4 = system: OVCAR-4
RPMI-8226 = system: RPMI-8226
HCT-15 = system: HCT-15
NCI-H23 = system: NCI-H23
CCRF-CEM = system: CCRF-CEM

| SMILES | GI50 (SK-MEL-5) | GI50 (786-0) | GI50 (SK-MEL-2) | GI50 (SK-OV-3) | GI50 (HCC 2998) | GI50 (A498) | GI50 (OVCAR-8) | GI50 (OVCAR-3) | GI50 (LOX IMVI) | GI50 (HOP-62) | GI50 (ACHN) | GI50 (A549) | GI50 (CAKI-1) | GI50 (OVCAR-4) | GI50 (RPMI-8226) | GI50 (HCT-15) | GI50 (NCI-H23) | GI50 (CCRF-CEM) |
| --- | --- | --- | --- | --- | --- | --- | --- | --- | --- | --- | --- | --- | --- | --- | --- | --- | --- | --- |
| COC(=O)Cc1cc(=O)n2c([nH]c3ccccc32)c1C#N | 34.8 µM (inactive) | > 100 µM (inactive) | > 100 µM (inactive) | 36.1 µM (inactive) | > 100 µM (inactive) | > 100 µM (inactive) | > 100 µM (inactive) | > 100 µM (inactive) | > 100 µM (inactive) | > 100 µM (inactive) | 63.1 µM (inactive) | > 100 µM (inactive) | > 100 µM (inactive) | > 100 µM (inactive) | 56.4 µM (inactive) | > 100 µM | > 100 µM (inactive) |  |
| Cc1nc(-n2nc(-c3ccccc3)cc2-c2ccccc2)sc1C(=O)/C=C/c1ccc(Cl)c(Cl)c1 |  | 15.7 µM (inactive) | 41.7 µM (inactive) | > 100 µM (inactive) | 24.7 µM (inactive) |  | 14.1 µM (inactive) | 15.9 µM (inactive) | 13.1 µM (inactive) | 21.9 µM (inactive) | 23.7 µM (inactive) | 25.6 µM (inactive) | 24.8 µM (inactive) | 21.1 µM (inactive) |  | 15.9 µM | 49.2 µM (inactive) | 16.9 µM (inactive) |
| COc1ccc(S(=O)(=O)c2ccccc2[N+](=O)[O-])cc1 | 65 µM (inactive) |  | > 100 µM (inactive) | > 100 µM (inactive) | > 100 µM (inactive) | > 100 µM (inactive) | > 100 µM (inactive) | 98.6 µM (inactive) | 91.4 µM (inactive) | > 100 µM (inactive) |  | > 100 µM (inactive) |  | > 100 µM (inactive) | > 100 µM (inactive) | > 100 µM | 98.9 µM (inactive) | > 100 µM (inactive) |
| C/C=C1/C(=Cc2[nH]c(C=c3[nH]/c(=C/C4=NC(=O)C(CC)=C4C)c(C)c3CCC(=O)O)c(CCC(=O)O)c2C)NC(=O)C1C (stereo unspecified) |  | 2.41 µM (inactive) | 9.08 µM (inactive) | 42.1 µM (inactive) | 11.4 µM (inactive) |  | 4.13 µM (inactive) | 27.5 µM (inactive) | 1.04 µM (active) | 2.33 µM (inactive) | 13.7 µM (inactive) | 10.5 µM (inactive) | 16.4 µM (inactive) | 11.1 µM (inactive) |  | 2.58 µM | 21.5 µM (inactive) | 2.1 µM (inactive) |
| COc1ccc(CCNCc2cccc(OC)c2OC)cc1OC | > 100 µM (inactive) | > 100 µM (inactive) | > 100 µM (inactive) | > 100 µM (inactive) | > 100 µM (inactive) |  | > 100 µM (inactive) | > 100 µM (inactive) | > 100 µM (inactive) | > 100 µM (inactive) | > 100 µM (inactive) | > 100 µM (inactive) | > 100 µM (inactive) | > 100 µM (inactive) | > 100 µM (inactive) | > 100 µM | > 100 µM (inactive) | > 100 µM (inactive) |
| O=c1ccc2ccccc2o1 [COUMARIN] |  | > 100 µM (inactive) | > 100 µM (inactive) | > 100 µM (inactive) | > 100 µM (inactive) | > 100 µM (inactive) | > 100 µM (inactive) | > 100 µM (inactive) | > 100 µM (inactive) | > 100 µM (inactive) | > 100 µM (inactive) | > 100 µM (inactive) |  | > 100 µM (inactive) | > 100 µM (inactive) | > 100 µM | > 100 µM (inactive) | > 100 µM (inactive) |
| COc1nc(N)c(NC(C)=O)c(=O)n1C |  |  | > 100 µM (inactive) |  | > 100 µM (inactive) | > 100 µM (inactive) | > 100 µM (inactive) |  | > 100 µM (inactive) |  | > 100 µM (inactive) | > 100 µM (inactive) | > 100 µM (inactive) | > 100 µM (inactive) | > 100 µM (inactive) | > 100 µM | > 100 µM (inactive) | > 100 µM (inactive) |
| Cc1cc(Cl)ccc1NC(=O)CCCC(=O)C(C(=O)c1ccccc1)c1ccccc1 (stereo unspecified) |  | > 100 µM (inactive) | > 100 µM (inactive) | > 100 µM (inactive) | > 100 µM (inactive) | > 100 µM (inactive) |  | > 100 µM (inactive) | > 100 µM (inactive) | 93.5 µM (inactive) | > 100 µM (inactive) |  | > 100 µM (inactive) | > 100 µM (inactive) | > 100 µM (inactive) | > 100 µM | > 100 µM (inactive) | > 100 µM (inactive) |
| Cc1ccc2c(c1)C1C(CO2)C(c2ccccc2)=NN1c1ccccc1 (stereo unspecified) |  | > 100 µM (inactive) | > 100 µM (inactive) | > 100 µM (inactive) | 95.5 µM (inactive) | > 100 µM (inactive) | > 100 µM (inactive) | > 100 µM (inactive) | > 100 µM (inactive) | > 100 µM (inactive) | > 100 µM (inactive) | > 100 µM (inactive) |  |  | 45.7 µM (inactive) |  | > 100 µM (inactive) | > 100 µM (inactive) |
| c1c(N2CCOCC2)s[s+]c1N1CCOCC1 | > 100 µM (inactive) | > 100 µM (inactive) | 7.06 µM (inactive) | > 100 µM (inactive) | > 100 µM (inactive) | > 100 µM (inactive) | > 100 µM (inactive) |  | > 100 µM (inactive) | > 100 µM (inactive) | > 100 µM (inactive) | > 100 µM (inactive) | > 100 µM (inactive) | > 100 µM (inactive) | > 100 µM (inactive) | > 100 µM | > 100 µM (inactive) | > 100 µM (inactive) |
| COc1ccc(C(=O)C(C(=O)C(=O)NCCCNC(=O)C(=O)C(C(=O)c2ccc(OC)cc2)c2ccc(OC)cc2)c2ccc(OC)cc2)cc1 (stereo unspecified) |  | > 100 µM (inactive) | > 100 µM (inactive) | > 100 µM (inactive) | > 100 µM (inactive) |  | > 100 µM (inactive) | > 100 µM (inactive) | > 100 µM (inactive) | > 100 µM (inactive) |  | > 100 µM (inactive) |  | > 100 µM (inactive) | > 100 µM (inactive) | > 100 µM | > 100 µM (inactive) | > 100 µM (inactive) |
| Cc1ccc(Oc2ccc(C)cc2[N+](=O)[O-])cc1 | 29.8 µM (inactive) |  | > 100 µM (inactive) | > 100 µM (inactive) | > 100 µM (inactive) | > 100 µM (inactive) | > 100 µM (inactive) | 55.8 µM (inactive) | 40.1 µM (inactive) | > 100 µM (inactive) | 69.2 µM (inactive) | 92.9 µM (inactive) |  | 6.12 µM (inactive) | 57.8 µM (inactive) | 63.8 µM | 31.5 µM (inactive) | 36.7 µM (inactive) |
| Cc1ccc(NC(=O)/C(CC(=O)c2c[n+]([O-])c3ccccc3[n+]2[O-])=N\NC(=O)C[n+]2ccccc2)cc1 | > 100 µM (inactive) | > 100 µM (inactive) | > 100 µM (inactive) | > 100 µM (inactive) | > 100 µM (inactive) | > 100 µM (inactive) | > 100 µM (inactive) | > 100 µM (inactive) | > 100 µM (inactive) | > 100 µM (inactive) | > 100 µM (inactive) | > 100 µM (inactive) | > 100 µM (inactive) | 64.1 µM (inactive) | > 100 µM (inactive) | > 100 µM |  | > 100 µM (inactive) |
| CC1(C)OC(C(N)=O)=C(C(N)=O)O1 |  | > 100 µM (inactive) | > 100 µM (inactive) | > 100 µM (inactive) | > 100 µM (inactive) | > 100 µM (inactive) | > 100 µM (inactive) | > 100 µM (inactive) | > 100 µM (inactive) | > 100 µM (inactive) | > 100 µM (inactive) | > 100 µM (inactive) | > 100 µM (inactive) | > 100 µM (inactive) |  | > 100 µM | > 100 µM (inactive) | > 100 µM (inactive) |
| O=P(c1ccccc1)(c1ccccc1)C1CC=C(c2ccccc2)C2(CCCC2)C1 (stereo unspecified) | 71.8 µM (inactive) | 98.9 µM (inactive) | 46.7 µM (inactive) | > 100 µM (inactive) |  | 74.8 µM (inactive) | 83.4 µM (inactive) | 49.1 µM (inactive) | 31.3 µM (inactive) |  |  | 40.3 µM (inactive) | 40.6 µM (inactive) | 29.6 µM (inactive) | 20.5 µM (inactive) | 36.1 µM | 9.44 µM (inactive) | 33.1 µM (inactive) |
| COc1ccc(-c2cc(N3CCN(c4ccc(Cl)cc4)CC3)c(C#N)c(=O)o2)cc1 | 11.9 µM (inactive) |  | 15.6 µM (inactive) |  | 91.8 µM (inactive) | 16.4 µM (inactive) | 5.28 µM (inactive) |  | 10.4 µM (inactive) |  | 6.64 µM (inactive) | 10.1 µM (inactive) | 8.71 µM (inactive) | 2.45 µM (inactive) | 12.8 µM (inactive) | 40.7 µM | 21.8 µM (inactive) |  |
| Cc1ccc(/C=C/C(=O)c2ccc([N+](=O)[O-])cc2)cc1 | > 100 µM (inactive) | > 100 µM (inactive) | > 100 µM (inactive) | > 100 µM (inactive) | > 100 µM (inactive) | 0.815 µM (active) | > 100 µM (inactive) | > 100 µM (inactive) | > 100 µM (inactive) | > 100 µM (inactive) | > 100 µM (inactive) | > 100 µM (inactive) | > 100 µM (inactive) | > 100 µM (inactive) |  | > 100 µM | 30.9 µM (inactive) | > 100 µM (inactive) |
| CN1C(=N\S(=O)(=O)c2ccc(Cl)cc2)/C(=N/N=P(c2ccccc2)(c2ccccc2)c2ccccc2)c2ccccc21 | > 100 µM (inactive) |  | > 100 µM (inactive) | > 100 µM (inactive) | > 100 µM (inactive) | > 100 µM (inactive) | > 100 µM (inactive) | > 100 µM (inactive) |  |  | > 100 µM (inactive) | 95.7 µM (inactive) | > 100 µM (inactive) | > 100 µM (inactive) |  | > 100 µM | > 100 µM (inactive) | > 100 µM (inactive) |
